Measurements reported in patent publication US4469634A, “Allyloxy- and allylthio-2,3,4,5-tetrahydro-1H-3-benzazepines” (SmithKline Beckman Corporation, priority 1982, dated 1984).
Structures can show the parent of a compound that is named as a salt. Where two headings read alike, the source gives them in different places.

Experiments:
alpha2-adrenoceptor = target: T1, alpha2-adrenoceptor (Cavia porcellus, UniProt Q60474); assay: prejunctional alpha2-antagonist activity in isolated superfused guinea pig left atrium (shift of clonidine concentration-response curve); type: cell-based
T1 construct: The left atrium is removed, dissected free of extraneous tissue and mounted in a 2 ml superfusion chamber; from tissue; host or cells: left atrium of male guinea pig (sympathetic nerve terminals)
T1 sequence (Q60474 1-464): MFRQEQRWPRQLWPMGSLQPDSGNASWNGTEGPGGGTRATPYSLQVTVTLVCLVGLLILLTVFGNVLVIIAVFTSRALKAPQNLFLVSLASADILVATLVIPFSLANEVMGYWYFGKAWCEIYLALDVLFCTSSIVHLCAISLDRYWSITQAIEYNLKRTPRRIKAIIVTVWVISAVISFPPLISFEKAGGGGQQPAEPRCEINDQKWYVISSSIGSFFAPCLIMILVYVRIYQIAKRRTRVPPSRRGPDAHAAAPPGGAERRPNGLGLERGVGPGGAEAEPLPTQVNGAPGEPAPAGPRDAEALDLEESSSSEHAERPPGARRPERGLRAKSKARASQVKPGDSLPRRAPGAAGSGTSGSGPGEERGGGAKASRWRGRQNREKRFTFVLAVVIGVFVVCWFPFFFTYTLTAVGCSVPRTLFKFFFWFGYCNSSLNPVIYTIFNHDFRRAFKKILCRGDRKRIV
Protocol: Briefly, the heart is removed from a pentobarbital-anesthetized male guinea pig. The left atrium is removed, dissected free of extraneous tissue and mounted in a 2 ml superfusion chamber. The tissue is paced at 60 pulse/minute and the sympathetic nerves excited at 6 minute intervals by field stimulation. The response to nerve stimulation is measured as the difference in contractile force between the basal contraction and peak contraction following a nerve stimulation. A concentration-response curve for clonidine (a known alpha2 -agonist) is prepared by administering increasing concentrations of clonidine following each successive stimulation. The tissue is, then, superfused with the alpha2 -antagonist to be tested for thirty minutes and the clonidine concentration-effect curve is repeated in the presence of antagonist. The receptor dissociation constant of the antagonist (KB) is defined as the antagonist concentration required to shift the log concentration-response curve of the agonist to the right by a factor of 2.
Pharmacol. 309 217-224 (1979).

platelet = platelet test (method not described); type: cell-based

Work on `C=CCSc1ccc2c(c1)CCNCC2` [Example 1, 7-allylthio-2,3,4,5-tetrahydro-1H-3-benzazepine hydrochloride] yielded a Kb (alpha2-adrenoceptor) of 0.38 µM.

`C=CCOc1ccc(Cl)c2c1CCN(C)CC2` [Example 2, 9-allyloxy-6-chloro-3-methyl-2,3,4,5-tetrahydro-1H-3-benzazepine hydrochloride] gave an EC50 (platelet) of 0.09 µM and a Kb (alpha2-adrenoceptor) of 0.32 µM.

With `C=CCOc1cccc2c1CCN(C)CC2` [Example 5, 6-allyloxy-3-methyl-2,3,4,5-tetrahydro-1H-3-benzazepinehydrochloride] the Kb (alpha2-adrenoceptor; isolated superfused guinea pig left atrium, clonidine as agonist, antagonist superfused thirty minutes, read-out: KB, guinea pig atrium (receptor dissociation constant of the antagonist)) was 0.16 µM.
